Four molecules from ChEMBL document CHEMBL4665626, “Excellent antitumor and antimetastatic activities based on novel coumarin/pyrazole oxime hybrids” (Eur J Med Chem, 2019) can be followed below.

pIC50: −log10 of the molar value. Structures can show the parent of a compound that is named as a salt. The source made the active and inactive calls. No cut-off for these calls is given here.

The test system of one test is HepG2. Kind of test: Antiproliferative activity against human HepG2 cells assessed as reduction in cell viability incubated for 72 hrs by MTT assay. Format: functional, cell-based. The conditions noted are these: HepG2, 72 h.
For the next test, the system named is U-87 MG. Kind of test: Antiproliferative activity against human U87 cells assessed as reduction in cell viability incubated for 72 hrs by MTT assay. Format: functional, cell-based, U-87MG ATCC. For orientation: Tetrazolium dyes change colour on reduction, which living cells bring about.
The nature of test [1]: Antiproliferative activity against human NCI-H1299 cells assessed as reduction in cell viability incubated for 72 hrs by MTT assay. To be noted: NCI-H1299, 72 h. The class given is functional, cell-based.
Test [2] has as its system SMMC-7721. As to the kind of experiment: Antiproliferative activity against human SMMC-7721 cells assessed as reduction in cell viability incubated for 72 hrs by MTT assay. Format: functional, cell-based. The conditions noted are these: SMMC-7721, 72 h.
In test [3] the test system is SMMC-7721. Kind of test: Inhibition of epithelial-mesenchymal transition in human SMMC-7721 cells assessed as decrease in TGF-beta1-induced vimentin expression at 0.5 uM incubated for 48 hrs by Western blot analysis. The class given is functional, cell-based.
In test [4] the test system is SMMC-7721. As to the kind of experiment: Inhibition of epithelial-mesenchymal transition in human SMMC-7721 cells assessed as increase in TGF-beta1 reduced E-cadherin expression at 0.5 uM incubated for 48 hrs by Western blot analysis. The class given is functional, cell-based.
Test [5] deals with SMMC-7721. As to the kind of experiment: Inhibition of epithelial-mesenchymal transition in human SMMC-7721 cells assessed as decrease in TGF-beta1-induced vimentin expression at 0.5 uM incubated for 48 hrs by immunofluorescence staining based laser-scanning confocal microscope. Format: functional, cell-based.
The subject of test [6] is SMMC-7721. Kind of test: Inhibition of TGF-beta1-induced cell migration in human SMMC-7721 cells at 0.5 uM incubated for 24 hrs by wound healing assay relative to control. Format: functional.
In test [7] the test system is SMMC-7721. As to the kind of experiment: Inhibition of epithelial-mesenchymal transition in human SMMC-7721 cells assessed as decrease in TGF-beta1-induced MMP9 expression at 0.5 uM incubated for 48 hrs by Western blot analysis. Format: functional, cell-based. (In general: A western blot detects proteins with antibodies after separation by electrophoresis.)
Test [8] has as its system SMMC-7721. As to the kind of experiment: Inhibition of epithelial-mesenchymal transition in human SMMC-7721 cells assessed as decrease in TGF-beta1-induced MMP9 expression at 0.5 uM incubated for 48 hrs by immunofluorescence staining based laser-scanning confocal microscope. The class given is functional, cell-based.
Test [9] relates to SMMC-7721. Kind of test: Inhibition of TGF-beta1-induced cell invasion in human SMMC-7721 cells at 0.5 uM incubated for 2 days by crystal violet staining based matrigel transwell migration assay. Format: functional. To be noted: time 2.0 day.
Test [10] concerns SMMC-7721. Kind of test: Inhibition of epithelial-mesenchymal transition in human SMMC-7721 cells assessed as increase in TGF-beta1 reduced E-cadherin expression at 0.5 uM incubated for 48 hrs by Immunofluorescence staining based laser-scanning confocal microscope. Format: functional, cell-based.

For the molecule `Cc1nn(C)c(Oc2ccc(OC(F)(F)F)cc2)c1/C=N\OCCCCCCOc1cc2oc(=O)cc(C)c2cc1Cl`, the pIC50 in the test on HepG2 is 5.09; with U-87 MG, 5.02; in [1], 4.92; in the test with SMMC-7721 [2], 5.20.
For `COc1cccc2c1C(=O)c1c(O)c3c(c(O)c1C2=O)C[C@@](O)(C(=O)CO)C[C@@H]3O[C@H]1C[C@H](N)[C@H](O)[C@H](C)O1` [DOXORUBICIN HYDROCHLORIDE], the pIC50 was 5.63 in the test with HepG2 and 5.37 with U-87 MG. Moreover, the inhibition entry with SMMC-7721 [3], in the test with SMMC-7721 [4], in the test on SMMC-7721 [5], with SMMC-7721 [6], in the test on SMMC-7721 [7] and in the test with SMMC-7721 [8] was “Active” throughout. Also, the inhibition entry in the test with SMMC-7721 [9] and in the test with SMMC-7721 [10] was “Active” throughout.
As for `O=c1[nH]cc(F)c(=O)[nH]1` [FLUOROURACIL], the pIC50 is 4.50 in the test on HepG2, 4.34 in the test with U-87 MG and 4.38 in test [1].
Take `Cc1nn(C)c(Oc2cccc(C(F)(F)F)c2)c1/C=N\OCCCCCCOc1cc2oc(=O)cc(C)c2cc1Cl`: the negative-log IC50 (pIC50) in the test on HepG2 was below 4.60; with U-87 MG, 4.63; in test [1], below 4.60; with SMMC-7721 [2], 4.61.

As usually defined, the pIC50 is the negative decadic logarithm of the IC50, by convention in mol/L.
